Reference: US12643910B2, “Substituted pyrazolo[3,4-b]pyridines as ectonucleotide pyrophosphatase/phosphodiesterase 1 (ENPP1) modulators” (SANFORD BURNHAM PREBYS MEDICAL DISCOVERY INSTITUTE, priority 2019, dated 2026)

Experiments:
ENPP3 = molecular target: T1, ENPP3 (Homo sapiens, UniProt O14638); assay: ENPP3 Km ATP assay; type: biochemical; conditions: ATP at Km
T1 sequence (O14638 1-875): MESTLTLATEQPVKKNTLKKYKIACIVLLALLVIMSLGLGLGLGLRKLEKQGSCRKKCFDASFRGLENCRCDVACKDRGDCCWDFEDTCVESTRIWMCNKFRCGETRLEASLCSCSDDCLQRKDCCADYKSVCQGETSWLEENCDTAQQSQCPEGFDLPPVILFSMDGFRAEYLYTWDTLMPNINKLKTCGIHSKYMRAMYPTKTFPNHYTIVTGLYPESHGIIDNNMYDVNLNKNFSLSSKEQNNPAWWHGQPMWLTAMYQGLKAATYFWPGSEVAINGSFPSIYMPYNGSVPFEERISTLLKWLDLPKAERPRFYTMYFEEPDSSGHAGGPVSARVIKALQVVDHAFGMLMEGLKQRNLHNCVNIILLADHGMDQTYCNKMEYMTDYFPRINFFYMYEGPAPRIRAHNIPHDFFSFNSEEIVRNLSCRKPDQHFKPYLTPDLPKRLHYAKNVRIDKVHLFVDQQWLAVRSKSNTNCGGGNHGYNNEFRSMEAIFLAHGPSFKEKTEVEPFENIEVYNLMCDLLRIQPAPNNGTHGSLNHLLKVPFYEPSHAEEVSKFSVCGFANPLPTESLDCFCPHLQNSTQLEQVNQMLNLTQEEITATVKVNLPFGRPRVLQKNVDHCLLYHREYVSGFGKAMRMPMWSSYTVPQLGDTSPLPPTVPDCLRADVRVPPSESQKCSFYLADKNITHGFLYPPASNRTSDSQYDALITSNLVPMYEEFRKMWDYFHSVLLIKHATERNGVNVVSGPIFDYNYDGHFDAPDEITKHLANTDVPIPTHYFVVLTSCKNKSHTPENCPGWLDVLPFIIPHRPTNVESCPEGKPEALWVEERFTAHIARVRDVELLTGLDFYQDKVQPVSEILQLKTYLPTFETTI

human ENPP1 = molecular target: T2, human ENPP1 (Homo sapiens, UniProt P22413); assay: ENPP1 assay with ATP substrate (Transcreener AMP2/GMP2 TR-FRET); type: biochemical; conditions: 1 hour at room temperature
T2 construct: made in house
T2 sequence (P22413 1-925): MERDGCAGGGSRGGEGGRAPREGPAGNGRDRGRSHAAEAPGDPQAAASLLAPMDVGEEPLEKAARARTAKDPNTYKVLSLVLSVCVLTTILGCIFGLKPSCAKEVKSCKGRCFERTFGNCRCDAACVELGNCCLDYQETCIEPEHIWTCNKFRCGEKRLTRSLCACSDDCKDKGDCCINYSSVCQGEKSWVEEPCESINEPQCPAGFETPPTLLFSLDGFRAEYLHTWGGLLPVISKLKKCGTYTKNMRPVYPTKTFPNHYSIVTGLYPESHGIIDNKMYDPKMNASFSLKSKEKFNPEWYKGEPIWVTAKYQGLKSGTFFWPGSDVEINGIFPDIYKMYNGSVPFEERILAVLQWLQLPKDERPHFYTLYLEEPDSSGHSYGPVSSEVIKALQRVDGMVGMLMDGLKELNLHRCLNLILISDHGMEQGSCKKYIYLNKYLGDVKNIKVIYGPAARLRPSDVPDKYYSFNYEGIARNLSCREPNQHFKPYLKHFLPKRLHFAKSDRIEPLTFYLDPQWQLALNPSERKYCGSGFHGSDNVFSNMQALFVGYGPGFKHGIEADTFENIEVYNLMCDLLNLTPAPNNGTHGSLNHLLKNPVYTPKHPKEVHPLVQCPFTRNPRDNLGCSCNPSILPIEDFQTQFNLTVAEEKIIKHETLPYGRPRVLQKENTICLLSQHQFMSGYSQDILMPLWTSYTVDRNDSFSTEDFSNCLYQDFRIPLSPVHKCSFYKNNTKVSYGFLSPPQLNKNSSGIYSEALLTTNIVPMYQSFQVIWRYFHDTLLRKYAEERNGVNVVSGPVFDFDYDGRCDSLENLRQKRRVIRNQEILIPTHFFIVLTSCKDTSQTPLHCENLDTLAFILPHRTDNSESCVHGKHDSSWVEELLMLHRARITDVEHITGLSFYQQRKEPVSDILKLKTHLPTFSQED
Summary of the method: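 Reaction ran 1 h at room temperature in pH 7.5 Tris with MgCl2, TCEP, Tween 20 and 1% DMSO. ATP was added as a 300 nM stock and enzyme as an 8.5 μM stock. After EDTA stop, AMP was read by TR-FRET tracer displacement. Percent inhibition used enzyme/no-enzyme controls; IC50 was fitted with a variable slope.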

Compound | IC50 (ENPP3) | IC50 (human ENPP1)
Cc1csc2c(N3CCC(NCCCc4ccccn4)CC3)ncnc12 [Example 3.3, 1-(7-Methylthieno[3,2-d]pyrimidin-4-yl)-N-(3-(pyridin-2-yl)propyl)piperidin-4-amine] | > 20 µM | 0.1 to 1 µM
Cc1ccc(CCCNC2CCN(c3ncnc4c(C)csc34)CC2)cc1 [Example 3.4, 1-(7-Methylthieno[3,2-d]pyrimidin-4-yl)-N-(3-(p-tolyl)propyl)piperidin-4-amine] | > 20 µM | 0.1 to 1 µM
Cc1csc2c(N3CCC(NCCCc4ccc(F)cc4)CC3)ncnc12 [Example 3.5, N-(3-(4-Fluorophenyl)propyl)-1-(7-methylthieno[3,2-d]pyrimidin-4-yl)piperidin-4-amine] | > 20 µM | 0.1 to 1 µM
Cc1csc2c(N3CCC(NCCCc4ccc(C#N)cc4)CC3)ncnc12 [Example 3.6, 4-(3-((1-(7-Methylthieno[3,2-d]pyrimidin-4-yl)piperidin-4-yl)amino)propyl)benzonitrile] | > 20 µM | 0.1 to 1 µM
Cc1csc2c(N3CCN(CCCCc4ccncc4)CC3)ncnc12 [Example 3.7, 7-Methyl-4-(4-(4-(pyridin-4-yl)butyl)piperazin-1-yl)thieno[3,2-d]pyrimidine] | > 20 µM | 1 to 20 µM
COc1cc(CCC(=O)NC2CCN(c3ncnc4c(C)csc34)CC2)ccn1 [Example 3.8] | > 20 µM | 1 to 20 µM
Cc1csc2c(N3CCC(NC(=O)CCc4ccnc(Br)c4)CC3)ncnc12 [Example 3.9] | > 20 µM | 1 to 20 µM
Cc1csc2c(N3CCC(NC(=O)/C=C/c4ccncc4Cl)CC3)ncnc12 [Example 3.11, (E)-3-(3-Chloropyridin-4-yl)-N-(1-(7-methylthieno[3,2-d]pyrimidin-4-yl)piperidin-4-yl)acrylamide] | > 20 µM | 1 to 20 µM
Cc1csc2c(N3CCC(NCCCc4cccc(C(F)(F)F)c4)CC3)ncnc12 [Example 3.12, 1-(7-Methylthieno[3,2-d]pyrimidin-4-yl)-N-(3-(3-(trifluoromethyl)phenyl)propyl)piperidin-4-amine] | > 20 µM | 0.1 to 1 µM
Cc1csc2c(N3CCC(NCCCc4ccncc4Cl)CC3)ncnc12 [Example 3.13, N-(3-(3-Chloropyridin-4-yl)propyl)-1-(7-methylthieno[3,2-d]pyrimidin-4-yl)piperidin-4-amine] | > 20 µM | 0.1 to 1 µM
Cc1ccccc1CCC(=O)NC1CCN(c2ncnc3c(C)csc23)CC1 [Example 3.14, N-(1-(7-Methylthieno[3,2-d]pyrimidin-4-yl)piperidin-4-yl)-3-(o-tolyl)propanamide] | > 20 µM | > 20 µM
Cc1cccc(CCC(=O)NC2CCN(c3ncnc4c(C)csc34)CC2)c1 [Example 3.15, N-(1-(7-Methylthieno[3,2-d]pyrimidin-4-yl)piperidin-4-yl)-3-(m-tolyl)propanamide] | > 20 µM | > 20 µM
Cc1ccccc1CCCNC1CCN(c2ncnc3c(C)csc23)CC1 [Example 3.16, 1-(7-Methylthieno[3,2-d]pyrimidin-4-yl)-N-(3-(o-tolyl)propyl)piperidin-4-amine] | > 20 µM | 0.1 to 1 µM
Cc1cccc(CCCNC2CCN(c3ncnc4c(C)csc34)CC2)c1 [Example 3.17, 1-(7-Methylthieno[3,2-d]pyrimidin-4-yl)-N-(3-(m-tolyl)propyl)piperidin-4-amine] | 1 to 20 µM | 0.1 to 1 µM
Cc1csc2c(N3CCC(NC(=O)CCc4cccc(Cl)c4)CC3)ncnc12 [Example 3.18, 3-(3-Chlorophenyl)-N-(1-(7-methylthieno[3,2-d]pyrimidin-4-Y)piperidin-4-yl)propanamide] | > 20 µM | > 20 µM
Cc1csc2c(N3CCC(NCCCc4cccc(Cl)c4)CC3)ncnc12 [Example 3.19, N-(3-(3-Chlorophenyl)propyl)-1-(7-methylthieno[3,2-d]pyrimidin-4-yl)piperidin-4-amine] | > 20 µM | 0.1 to 1 µM
Cc1csc2c(N3CCC(NC(=O)CCc4ccc(F)cc4)CC3)ncnc12 [Example 3.20, 3-(4-Fluorophenyl)-N-(1-(7-methylthieno[3,2-d]pyrimidin-4-yl)piperidin-4-yl)propanamide] | > 20 µM | > 20 µM
Cc1csc2c(N3CCC(NC(=O)COc4ccc(F)cc4)CC3)ncnc12 [Example 3.22, 2-(4-Fluorophenoxy)-N-(1-(7-methylthieno[3,2-d]pyrimidin-4-yl)piperidin-4-yl)acetamide] | > 20 µM | 1 to 20 µM
Cc1csc2c(N3CCC(NCCOc4ccc(F)cc4)CC3)ncnc12 [Example 3.23, N-(2-(4-Fluorophenoxy)ethyl)-1-(7-methylthieno[3,2-d]pyrimidin-4-yl)piperidin-4-amine] | > 20 µM | > 20 µM
Cc1csc2c(N3CCC(Nc4ccncc4)CC3)ncnc12 [Example 3.24, N-(1-(7-Methylthieno[3,2-d]pyrimidin-4-yl)piperidin-4-yl)pyridin-4-amine] | > 20 µM | 1 to 20 µM
Cc1csc2c(N3CCC(NCCc4ccncc4)CC3)ncnc12 [Example 3.25, 1-(7-Methylthieno[3,2-d]pyrimidin-4-yl)-N-(2-(pyridin-4-yl)ethyl)piperidin-4-amine] | > 20 µM | 0.1 to 1 µM
Cc1csc2c(N3CCC(NCCCc4cccnc4)CC3)ncnc12 [Example 3.26, 1-(7-Methylthieno[3,2-d]pyrimidin-4-yl)-N-(3-(pyridin-3-yl)propyl)piperidin-4-amine] | > 20 µM | 0.1 to 1 µM
Cc1csc2c(N3CCC(NCCCc4ccccc4)CC3)ncnc12 [Example 3.27, 1-(7-Methylthieno[3,2-d]pyrimidin-4-yl)-N-(3-phenylpropyl)piperidin-4-amine] | > 20 µM | 0.1 to 1 µM
Cc1csc2c(N3CCC(NCCCc4ccc(Cl)cc4)CC3)ncnc12 [Example 3.28, N-(3-(4-Chlorophenyl)propyl)-1-(7-methylthieno[3,2-d]pyrimidin-4-yl)piperidin-4-amine] | > 20 µM | < 0.1 µM
Cc1csc2c(N3CCC(NCCCc4ccncc4)C3)ncnc12 (centres unmarked) [Example 3.29, 1-(7-Methylthieno[3,2-d]pyrimidin-4-yl)-N-(3-(pyridin-4-yl)propyl)pyrrolidin-3-amine] | > 20 µM | 0.1 to 1 µM
Cc1cc(CCCNC2CCN(c3ncnc4c(C)csc34)CC2)ccn1 [Example 3.30, N-(3-(2-Methylpyridin-4-yl)propyl)-1-(7-methylthieno[3,2-d]pyrimidin-4-yl)piperidin-4-amine] | > 20 µM | 0.1 to 1 µM
COc1ccc(CCC(=O)NC2CCN(c3ncnc4c(C)csc34)CC2)cc1 [Example 3.31, 3-(4-Methoxyphenyl)-N-(1-(7-methylthieno[3,2-d]pyrimidin-4-yl)piperidin-4-yl)propanamide] | > 20 µM | > 20 µM
COc1ccc(CCCNC2CCN(c3ncnc4c(C)csc34)CC2)cc1 [Example 3.32, N-(3-(4-Methoxyphenyl)propyl)-1-(7-methylthieno[3,2-d]pyrimidin-4-yl)piperidin-4-amine] | > 20 µM | 0.1 to 1 µM
